Several values for one entry are separate records, joined by “and”; a condition that tells them apart may be missing. Identical values can stand only once.
Assays:
[1] = tested on: L. blandensis class I RNR; assay: Four-substrate activity assay, allosteric specificity regulation; type: biochemical, Leeuwenhoekiella blandensis; details: all four substrates 0.5 mM each, effector 2 mM, 1 µM NrdB and 4 µM NrdA
Experimental: (§1) Enzyme assays were performed at room temperature in 50 mM Tris-HCl at pH 8 in volumes of 50 μl. Reaction conditions, giving maximal activity were determined experimentally. […] Mixtures of 0.5 μM NrdA and 2 μM wild type NrdB or NrdB∆99 (for determination of s-site KL) (Figure 3a–b) or 0.5 μM of NrdB and 2 uM NrdA (for determination of a-site KL), (Figure 3c–f) were used. Some components were explicitly varied in specific experiments. Generally, 0.8 mM CDP was used as substrate. […] When dTTP was used as an s-site effector, 0.5 mM or 0.8 mM GDP was used as substrate. In four substrate assays, the four substrates CDP, ADP, GDP and UDP were simultaneously present in the mixture at concentrations of 0.5 mM each. The substrate mixture was added last to start the reactions. Certain assays were performed in the presence of Mn(CH3COO)2 or FeNH4(SO4): 20 μM of the indicated metal was added to 10 μM NrdB or NrdB∆99 protein, incubated for 10 min, mixed with NrdA and added to the reaction mixture.
(§2) Enzyme reactions were incubated for 10–30 min and then stopped by the addition of methanol. The chosen incubation time gave a maximum substrate turnover of 30%. […] Compound identification was achieved by comparison with injected standards. Relative quantification was obtained by peak height measurements in the chromatogram (UV absorbance at 271 nm) in relation to standards. Specific activities of either NrdA (Figure 2a–b) or NrdB (Figure 2c–f) were determined. Specific activities varied between protein preparations. In some cases the data was standardized to activity percent, where 100% was determined as maximum enzyme activity in a specific condition.

[2] = target: L. blandensis RNR, a-site (NrdB-linked ATP-cone) (Leeuwenhoekiella blandensis, UniProt A3XHF9); assay: Enzyme activity assay with wild type NrdB (overall activity regulation, a-site); type: biochemical; details: for interaction with the a-site (effect on GDP reduction): 2 mM nucleotide, s-site saturating dTTP (2 mM), 4 µM NrdA and 1 µM NrdB
Experimental: as §1, §2
From a direct plot of activity versus concentration of effector, the KL values for binding of effectors to the s-site and the a-site, were calculated in SigmaPlot using the equation: V=Vmax×[dNTP]/(KL+[dNTP]) and Ki for non-competitive dATP inhibition at NrdB was calculated in Sigmaplot using the equation: V=Vmax/(1+[dNTP]/Ki)

[3] = tested on: L. blandensis RNR (wild-type NrdB or NrdB∆99); assay: Metal-dependency of enzyme activity; type: biochemical, Leeuwenhoekiella blandensis; details: metal added to cultures or 20 µM divalent metal ions to 10 µM NrdB
Experimental: Overnight cultures of E. coli BL21(DE3)/pET28a(+) bearing pET-nrdA, pET-nrdB and pET-nrdB∆99 were diluted to an absorbance at 600 nm of 0.1 in LB (Luria-Bertani) liquid medium, containing kanamycin (50 μg/ml) and shaken vigorously at 37°C. At an absorbance at 600 nm of 0.8, isopropyl-β-D-thiogalactopyranoside (Sigma) was added to a final concentration of 0.01 mM for NrdA expression and 0.5 mM for NrdB and NrdB∆99 expression. For particular experiments, 0.5 mM MnSO4 or 0.5 mM FeNH4(SO4)2 or the combination of both metals (0.4 mM and 0.25 mM respectively) were added to NrdB∆99 cultures. The cells were grown overnight at 14°C for NrdA expression and 20°C for NrdB and NrdB∆99 expression and harvested by centrifugation.
Enzyme assays were performed at room temperature in 50 mM Tris-HCl at pH 8 in volumes of 50 μl. Reaction conditions, giving maximal activity were determined experimentally. […] Mixtures of 0.5 μM NrdA and 2 μM wild type NrdB or NrdB∆99 (for determination of s-site KL) (Figure 3a–b) or 0.5 μM of NrdB and 2 uM NrdA (for determination of a-site KL), (Figure 3c–f) were used. Some components were explicitly varied in specific experiments. Generally, 0.8 mM CDP was used as substrate. […] When dTTP was used as an s-site effector, 0.5 mM or 0.8 mM GDP was used as substrate. […]

NrdB [4] = target: T1, NrdB (Leeuwenhoekiella blandensis, UniProt A3XHF9); assay: GEMMA analysis of NrdB oligomers; details: 50 µM nucleotide, 0.1 mg/ml NrdB (~2 µM)
Experimental: In GEMMA, biomolecules are electrosprayed into gas phase, neutralized to singly charged particles, and the gas phase electrophoretic mobility is measured with a differential mobility analyzer. The mobility of an analyzed particle is proportional to its diameter, which therefore allows for quantitative analysis of the different particle sizes contained in a sample ([Kaufman et al., 1996]). The GEMMA instrumental setup and general procedures were as described previously ([Rofougaran et al., 2008]). NrdA, NrdB and NrdB∆99 proteins were equilibrated by Sephadex G-25 chromatography into a buffer containing 100 mM ammonium acetate, pH 7.8. In addition, 2 mM DTT was added to the NrdA protein solutions to increase protein stability. Prior to GEMMA analysis, the protein samples were diluted to a concentration of 0.025–0.1 mg/ml in a buffer containing 20 mM ammonium acetate, pH 7.5, 0.005% (v/v) Tween 20, nucleotides (when indicated), and magnesium acetate (equimolar to the total nucleotide concentration), incubated for 5 min at room temperature, centrifuged and applied to the GEMMA instrument. Protein concentrations higher than normally recommended for GEMMA were needed to see the larger oligomeric complexes and the experiments to measure NrdA-NrdB interactions were run at as low flow rate as possible (driven by 1.4 Psi pressure) to minimize false interactions that may appear with elevated protein concentration if the flow-rate recommended by the manufacturer is used (3.7 Psi). Most of our experiments were performed with a flow rate driven by 2 Psi.

NrdB [5] = target: T1, NrdB; assay: Isothermal titration calorimetry (ITC), nucleotide binding to NrdB
Experimental: Isothermal titration calorimetry (ITC) experiments were carried out on a MicroCal PEAQ-ITC system (Malvern Instruments Ltd) in a buffer containing 25 mM HEPES (pH 7.65), 150 mM NaCl, and 10% glycerol, 2 mM tris(2-carboxyethyl)phosphine, and 5 mM MgCl2. Measurements were done at 10°C. The initial injection volume was 0.4 μl over a duration of 0.8 s. All subsequent injection volumes were 2–2.5 μl over 4–5 s with a spacing of 150 s between the injections. Data for the initial injection were not considered. For dATP binding analysis, the concentration of NrdB in the cell was 12 µM and dATP in syringe 120 or 140 µM. Reverse titrations were performed with 113 µM NrdB in the syringe and 12 or 30 µM dATP in the cell. For titration of dATP into NrdB∆99, protein concentration in the cell and dATP concentration in the syringe were 50 µM and 900 µM respectively. […] For titration of ATP into NrdB, cell and syringe concentrations were 50 and 1600 µM respectively. The data were analyzed using the built-in one set of sites model of the MicroCal PEAQ-ITC Analysis Software (Malvern Instruments Ltd). A fixed ligand/protein stoichiometry of 2 was used for dATP to NrdB titrations. Standard deviations in thermodynamic parameters, N and Kd were estimated from the fits of three different titrations.

L. blandensis RNR, a-site (NrdB-linked ATP-cone), sequence (A3XHF8 entry or part of it): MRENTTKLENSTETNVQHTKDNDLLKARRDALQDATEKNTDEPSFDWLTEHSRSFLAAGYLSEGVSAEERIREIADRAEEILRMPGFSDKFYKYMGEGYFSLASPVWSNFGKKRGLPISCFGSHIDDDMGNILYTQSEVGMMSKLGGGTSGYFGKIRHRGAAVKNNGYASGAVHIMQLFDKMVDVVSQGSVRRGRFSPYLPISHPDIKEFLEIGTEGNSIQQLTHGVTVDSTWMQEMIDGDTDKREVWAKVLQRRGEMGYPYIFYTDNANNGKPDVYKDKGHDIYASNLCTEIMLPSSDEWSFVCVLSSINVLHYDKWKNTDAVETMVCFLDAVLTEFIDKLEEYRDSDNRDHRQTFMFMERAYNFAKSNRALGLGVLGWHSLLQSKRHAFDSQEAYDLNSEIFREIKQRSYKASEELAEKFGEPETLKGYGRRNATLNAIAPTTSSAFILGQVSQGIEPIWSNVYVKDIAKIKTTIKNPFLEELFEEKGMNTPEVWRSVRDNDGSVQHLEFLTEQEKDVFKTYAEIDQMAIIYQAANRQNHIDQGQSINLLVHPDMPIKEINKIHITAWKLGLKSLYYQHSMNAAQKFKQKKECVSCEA
L. blandensis RNR, a-site (NrdB-linked ATP-cone), sequence (A3XHF9 entry or part of it): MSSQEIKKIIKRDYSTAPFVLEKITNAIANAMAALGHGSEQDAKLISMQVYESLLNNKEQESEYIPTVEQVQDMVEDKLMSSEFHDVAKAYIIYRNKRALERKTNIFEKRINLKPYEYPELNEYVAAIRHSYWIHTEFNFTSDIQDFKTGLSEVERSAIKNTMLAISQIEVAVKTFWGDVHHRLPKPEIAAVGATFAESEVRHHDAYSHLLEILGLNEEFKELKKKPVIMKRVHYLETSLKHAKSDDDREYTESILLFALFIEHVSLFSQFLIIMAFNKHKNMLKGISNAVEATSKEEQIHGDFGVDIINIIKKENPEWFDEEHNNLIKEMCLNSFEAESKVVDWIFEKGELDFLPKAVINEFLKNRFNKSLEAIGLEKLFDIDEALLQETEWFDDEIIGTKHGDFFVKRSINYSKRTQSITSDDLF
T1 sequence (A3XHF9 entry or part of it): as above

`Nc1nc2c(ncn2[C@H]2C[C@H](O)[C@@H](COP(=O)(O)OP(=O)(O)OP(=O)(O)O)O2)c(=O)[nH]1` [dGTP] was tested, and the “effect of s-site effector on substrate reduction” value [1] was “stimulated the reduction of ADP and GDP”.

In the case of `Nc1ncnc2c1ncn2[C@H]1C[C@H](O)[C@@H](COP(=O)(O)O)O1` [dAMP], the “interaction with the a-site (effect on GDP reduction)” value [2] was “no effect”.

In the case of `Nc1ncnc2c1ncn2[C@@H]1O[C@H](COP(=O)(O)OP(=O)(O)O)[C@@H](O)[C@H]1O` [ADP], the “interaction with the a-site (effect on GDP reduction)” value [2] was “no effect”.

With `O=S(=O)([O-])[O-].O=S(=O)([O-])[O-].[Fe+2].[NH4+].[NH4+]` [Fe^2+, FeNH4(SO4)] the “effect of metal on catalytic activity” value [3] was “inhibition”.

With dADP the “interaction with the a-site (effect on GDP reduction)” value [2] was “found to interact”, the “effect of titration on enzyme activity” value ([2]; CDP reduction (3 mM CDP), 2 µM NrdA and 0.5 µM NrdB) was “inhibited the enzyme activity, although less strongly than dATP” and the “effect on NrdB oligomer equilibrium” value (NrdB [4]) was “induced formation of NrdB tetramers, although less efficiently than with dATP”. The “-TΔS” value (NrdB [5]; 10°C) was 18.4 ± 1.9 kcal/mol, the ΔG (NrdB [5]; 10°C) was -6.21 kcal/mol and the ΔH (NrdB [5]; 10°C) was -24.6 kcal/mol and -24.6 ± 2.2 kcal/mol. For the same compound, the “N (binding stoichiometry)” value (NrdB [5]; 10°C, per NrdB monomer, for dATP kept constant N = 2, 59% active protein) was 2.1 and 2.1 ± 0.2 and the “lower affinity compared to dATP” value (NrdB [5]; from Kd, ITC) was 15 fold.

Reference: PMC5794259, “Novel ATP-cone-driven allosteric regulation of ribonucleotide reductase via the radical-generating subunit” (eLife, 2018)
